According to article PMC7778606, “Development of the phenylpyrazolo[3,4-d]pyrimidine-based, insulin-like growth factor receptor/Src/AXL-targeting small molecule kinase inhibitor” (Theranostics, 2021):

What was measured:
Water solubility = format: physicochemical
NSCLC cells = assay: Anchorage-dependent colony formation assay; format: cell-based, human; conditions: subset of NSCLC cells
Description: Cells were seeded into 6-well plates at a density of 300 cells/well and treated with LL6. The drug-containing medium was changed once or twice a week. After incubation for 10-14 days, colonies were fixed with 100% methanol, stained with 0.002% crystal violet solution, and washed with deionized water several times. The colonies were imaged and manually counted.

H522 cells = assay: MTT assay, viability of H522 cells; format: cell-based; conditions: Homo sapiens, NCI-H522, 72 h, three days, read-out: IC50 against the viability
Description: (§1) Cells were seeded into 96-well plates at a density of 1-2 × 10^3 cells/well and incubated for 24 h. Cells were treated with vehicle or various concentrations of test compounds for two (PC9 and PC9/ER cells) or three (other cells) days. Cells were further incubated with MTT solution (final concentration of 500 μg/mL) for 4 h at 37 °C. The formazan products were dissolved in dimethyl sulfoxide (DMSO), and the absorbance was measured at 570 nm. The data are presented as a percentage of the control group.

H226B cells = assay: MTT assay, viability of H226B cells; format: cell-based; conditions: Homo sapiens, 72 h, three days, read-out: IC50 against the viability
Description: as §1

97 tested kinases = assay: Kinome-wide inhibition profiling (KINOMEscan, TREEspot); format: binding, human; conditions: 10 µM, > 65% inhibition
HCC15 cells = assay: MTT assay, viability of HCC15 cells; format: cell-based; conditions: Homo sapiens, 72 h, three days, read-out: IC50 against the viability
Description: as §1

Wi38 cells = assay: MTT assay, viability of Wi38 human lung fibroblasts; format: cell-based; conditions: WI-38, 72 h; Wi38 human lung fibroblasts, MTT assay, three days; read-out: IC50 against the viability
Description: as §1

[1] = as above; format: cell-based; conditions: human, Wi38 lung fibroblasts; Wi38, 10 μM; read-out: percentage of cell viability
Description: as §1

IGF-1R = assay: Western blot, phosphorylation of IGF-1R in H1944 and A549 cells; format: cell-based, human; conditions: 2.5 μM
Description: Before harvesting, the cells were stimulated with 10% FBS for 20 min. Total cell lysates were prepared with modified radioimmunoprecipitation assay lysis buffer (50 mM Tris-HCl [pH 7.4], 150 mM NaCl, 1 mM EDTA, 0.25% sodium deoxycholate, 1% Triton X-100, 100 mM NaF, 5 mM Na3VO4, 1 mM PMSF, 1 μg/mL aprotinin, 1 μg/mL leupeptin, and 1 μg/mL pepstatin). Equal amounts of protein (20 μg) were subjected to 8% SDS-PAGE and electrically transferred onto polyvinylidene difluoride membranes (Bio-Rad Laboratories, Hercules, CA, USA). Membranes were blocked with blocking buffer (3% BSA in Tris-buffered saline containing 0.1% Tween-20 [TBST]) for 1 h at room temperature. The membranes were incubated with primary antibodies diluted in 3% BSA in TBST (1:1,000) overnight at 4 °C, washed multiple times with TBST, and incubated with secondary antibodies diluted in 3% nonfat dry milk in TBST (1:5,000) for 1 h at room temperature. The membranes were washed multiple times with TBST and visualized using an enhanced chemiluminescence detection kit (Thermo Fisher Scientific). Densitometric analysis was performed using ImageJ software.

[2] = target: T1, ABL1(T315I)-phosphorylated (Homo sapiens, UniProt P00519, T315I); assay: KINOMEscan competition binding assay; conditions: LL6 at 10 μM; read-out: Percent Control
T1 construct: purchased DiscoverX KINOMEscan
Description: (§2) To briefly summarize, Kd was measured by a competition binding assay that quantitatively measures the ability of a compound to compete with an immobilized ligand. […] Dose response curves of 11 points are obtained for Kd values, which are measured in duplicate. See more details in the cited references [39]-[42] and see also at www.discoverx.com.

ABL1-nonphosphorylated = target: T2, ABL1-nonphosphorylated (Homo sapiens, UniProt P00519); assay: KINOMEscan competition binding assay; conditions: LL6 at 10 μM; read-out: Percent Control
T2 construct: purchased DiscoverX KINOMEscan
Description: as §2

AKT2 = target: T3, AKT2 (Homo sapiens, UniProt P31751); assay: KINOMEscan competition binding assay; conditions: LL6 at 10 μM; read-out: Percent Control
T3 construct: purchased DiscoverX KINOMEscan
Description: as §2

AURKB = target: T4, AURKB (Homo sapiens, UniProt Q96GD4); assay: KINOMEscan competition binding assay; conditions: LL6 at 10 μM; read-out: Percent Control
T4 construct: purchased DiscoverX KINOMEscan
Description: as §2

AKT1 = target: T5, AKT1 (Homo sapiens, UniProt P31749); assay: KINOMEscan competition binding assay; conditions: LL6 at 10 μM; read-out: Percent Control
T5 construct: purchased DiscoverX KINOMEscan
Description: as §2

ACVR1B = target: T6, ACVR1B (Homo sapiens, UniProt P36896); assay: KINOMEscan competition binding assay; conditions: LL6 at 10 μM; read-out: Percent Control
T6 construct: purchased DiscoverX KINOMEscan
Description: as §2

[3] = target: T7, ABL1(E255K)-phosphorylated (Homo sapiens, UniProt P00519, E255K); assay: KINOMEscan competition binding assay; conditions: LL6 at 10 μM; read-out: Percent Control
T7 construct: purchased DiscoverX KINOMEscan
Description: as §2

ABL1-phosphorylated = target: T8, ABL1-phosphorylated (Homo sapiens, UniProt P00519); assay: KINOMEscan competition binding assay; conditions: LL6 at 10 μM; read-out: Percent Control
T8 construct: purchased DiscoverX KINOMEscan
Description: as §2

ADCK3 = target: T9, ADCK3 (Homo sapiens, UniProt Q8NI60); assay: KINOMEscan competition binding assay; conditions: LL6 at 10 μM; read-out: Percent Control
T9 construct: purchased DiscoverX KINOMEscan
Description: as §2

[4] = system: H1944 and A549 xenograft tumors; assay: NSCLC xenograft tumor model; format: in vivo, NOD/SCID mice; conditions: 80 mg/kg
Description: All animal experiments were performed according to protocols approved by the Seoul National University Institutional Animal Care and Use Committee. Mice were fed standard mouse chow and water ad libitum and housed in temperature- and humidity-controlled facilities with a 12-h light/12-h dark cycle. For xenograft experiments, H1944 and A549 cells (1×10^6 cells/spot, diluted in equal amounts of PBS and Matrigel) were subcutaneously injected into the right flank of 6-week-old non-obese diabetic-severe combined immunodeficiency (NOD/SCID) mice. After the tumor volume reached 50-150 mm^3, the mice were randomly grouped and treated with vehicle [10% DMSO in 60% polyethylene glycol (PEG) 400 solution] or LL6 (80 mg/kg) 6 days per week for 2 weeks. Tumor growth was determined by measuring the short and long diameters of the tumor with a caliper, and body weight was measured once or twice per week to monitor toxicity. Additionally, to evaluate the effect of LL6 on mutant Kras-driven lung tumorigenesis, 2-month-old Kras^G12D/+ transgenic mice were randomized and treated with vehicle or LL6 (80 mg/kg) for 8 weeks. The mice were euthanized, and tumor formation was evaluated and compared with that of the vehicle-treated control group. Microscopic evaluations of the H&E-stained lung tissue were also performed to measure mean tumor number (N) and volume (V) in a blinded fashion. The number and size of tumors were calculated in five sections uniformly distributed throughout each lung. In both animal experiments, the tumor volume and burden of each sample were calculated using the following formulas: Tumor volume (mm^3) = (short diameter)^2 × (long diameter) × 0.5; Tumor burden (mm^3) = number of tumors × the average of tumor volume.

T6 sequence (P36896 24-505): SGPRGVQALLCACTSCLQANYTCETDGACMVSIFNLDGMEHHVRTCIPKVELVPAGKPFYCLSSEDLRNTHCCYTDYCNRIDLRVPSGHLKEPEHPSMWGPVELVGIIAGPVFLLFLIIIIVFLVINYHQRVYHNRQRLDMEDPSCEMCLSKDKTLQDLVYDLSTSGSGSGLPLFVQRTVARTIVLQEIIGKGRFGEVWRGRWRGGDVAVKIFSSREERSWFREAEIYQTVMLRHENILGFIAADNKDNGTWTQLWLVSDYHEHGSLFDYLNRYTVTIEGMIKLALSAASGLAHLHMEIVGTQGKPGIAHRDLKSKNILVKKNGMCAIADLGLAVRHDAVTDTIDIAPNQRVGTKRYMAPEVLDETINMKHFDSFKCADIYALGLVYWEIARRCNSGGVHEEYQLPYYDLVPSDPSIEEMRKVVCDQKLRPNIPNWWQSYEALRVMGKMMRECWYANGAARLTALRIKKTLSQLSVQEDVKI
T9 sequence (Q8NI60 163-647): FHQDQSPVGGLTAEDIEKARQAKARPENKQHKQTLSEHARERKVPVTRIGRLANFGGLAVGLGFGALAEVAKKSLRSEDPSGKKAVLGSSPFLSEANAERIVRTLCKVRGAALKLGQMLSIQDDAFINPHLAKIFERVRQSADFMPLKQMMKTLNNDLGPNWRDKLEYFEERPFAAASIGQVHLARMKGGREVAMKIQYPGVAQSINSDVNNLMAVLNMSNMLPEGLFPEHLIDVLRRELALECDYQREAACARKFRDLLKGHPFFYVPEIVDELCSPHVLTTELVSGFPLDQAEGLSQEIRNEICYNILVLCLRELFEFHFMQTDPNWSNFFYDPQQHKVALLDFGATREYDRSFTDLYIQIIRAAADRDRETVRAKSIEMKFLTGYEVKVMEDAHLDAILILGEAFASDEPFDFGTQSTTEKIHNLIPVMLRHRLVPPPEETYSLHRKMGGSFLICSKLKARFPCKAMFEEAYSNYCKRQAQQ
T4 sequence (Q96GD4 whole entry): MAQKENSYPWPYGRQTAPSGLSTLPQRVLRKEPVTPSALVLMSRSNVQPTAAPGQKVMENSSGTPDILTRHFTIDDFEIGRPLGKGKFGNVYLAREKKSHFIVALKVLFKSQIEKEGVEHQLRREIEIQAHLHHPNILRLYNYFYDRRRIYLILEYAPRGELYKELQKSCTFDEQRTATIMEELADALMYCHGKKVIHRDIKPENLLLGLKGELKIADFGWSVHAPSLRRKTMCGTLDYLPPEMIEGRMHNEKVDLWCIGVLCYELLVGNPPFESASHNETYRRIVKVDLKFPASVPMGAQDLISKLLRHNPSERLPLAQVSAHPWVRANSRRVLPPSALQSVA
T3 sequence (P31751 whole entry): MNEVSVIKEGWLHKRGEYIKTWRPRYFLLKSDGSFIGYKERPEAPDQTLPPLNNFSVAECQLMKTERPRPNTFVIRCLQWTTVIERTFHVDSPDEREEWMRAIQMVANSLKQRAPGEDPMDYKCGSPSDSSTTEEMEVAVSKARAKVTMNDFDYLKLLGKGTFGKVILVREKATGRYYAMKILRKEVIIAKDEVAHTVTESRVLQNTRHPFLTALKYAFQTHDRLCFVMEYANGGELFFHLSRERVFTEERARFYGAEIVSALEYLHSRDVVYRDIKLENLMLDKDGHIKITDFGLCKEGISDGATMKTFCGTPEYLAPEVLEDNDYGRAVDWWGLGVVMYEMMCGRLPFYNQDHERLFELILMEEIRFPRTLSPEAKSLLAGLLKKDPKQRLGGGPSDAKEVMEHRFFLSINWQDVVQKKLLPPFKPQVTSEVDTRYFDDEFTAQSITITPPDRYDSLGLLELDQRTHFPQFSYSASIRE
T5 sequence (P31749 whole entry): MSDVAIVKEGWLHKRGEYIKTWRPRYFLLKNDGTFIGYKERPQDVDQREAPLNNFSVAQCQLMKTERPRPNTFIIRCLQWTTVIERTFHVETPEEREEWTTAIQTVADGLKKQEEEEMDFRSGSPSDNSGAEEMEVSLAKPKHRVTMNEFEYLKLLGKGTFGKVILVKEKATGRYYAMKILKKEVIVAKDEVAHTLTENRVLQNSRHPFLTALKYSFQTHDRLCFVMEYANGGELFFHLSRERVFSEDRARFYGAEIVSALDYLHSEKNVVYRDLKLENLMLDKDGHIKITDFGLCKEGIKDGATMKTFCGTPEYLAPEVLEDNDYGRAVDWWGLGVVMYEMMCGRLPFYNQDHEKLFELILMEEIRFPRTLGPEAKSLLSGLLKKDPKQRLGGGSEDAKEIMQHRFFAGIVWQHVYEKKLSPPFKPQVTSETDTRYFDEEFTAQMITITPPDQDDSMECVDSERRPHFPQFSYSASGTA

- water solubility (Water solubility): poor
- IC50 (H522 cells): 3.55 µM
- IC50 (H226B cells): 1370 nM
- IC50 (HCC15 cells): 3.73 µM
- remaining binding at 10 µM [2]: 100%
- remaining binding at 10 µM (ABL1-nonphosphorylated): 61%
- remaining binding at 10 µM (AKT2): 77%
- remaining binding at 10 µM (AURKB): 55%
- remaining binding at 10 µM (AKT1): 100%
- remaining binding at 10 µM (ACVR1B): 50%
- remaining binding at 10 µM [3]: 92%
- remaining binding at 10 µM (ABL1-phosphorylated): 62%
- remaining binding at 10 µM (ADCK3): 67%
Compound: Nc1ncnc2c1c(-c1ccc(Cl)cc1)nn2CCn1cc(COc2ccc(Nc3nccc(Nc4cnc5ccccc5c4)n3)cc2)nn1 [LL6]
- colony formation, anchorage-dependent (NSCLC cells): significantly suppressed
- S-score (97 tested kinases): 0.12
- IC50 (Wi38 cells): > 10 µM
- viability at 3 days, 10 µM [1]: > 60%
- activation (phosphorylation) of IGF-1R (IGF-1R): efficiently suppressed
- tumor growth and weight ([4]; H1944 and A549 xenografts, 6 days per week for 2 weeks): significantly reduced
- expression of phosphorylated IGF-1R and Src in tumors ([4]; Western blot of xenograft tumors): substantially suppressed
- body weight ([4]; xenograft-bearing mice): minimal changes
